Source: patent publication US7618790B2, “Method for NGF assay for in vitro diagnosis of breast cancer and therapeutic use” (Biomerieux, priority 2002, dated 2009)

Legend:
PC12 cells = assay: Coculture of NGF-sensitive PC12 cells with MCF-7 breast cancer cells (neurite differentiation); type: cell-based
Protocol: To do this, cells which develop in the presence of NGF, i.e. PC12 cells, were cocultured with MCF-7 breast cancer cells, as described in point 1.1 above, or else with NBEC cells, as described in point 1.1 above, as a control.
The PC12 cells were cultured beforehand at 37° C. in a 5% CO2 atmosphere, in Dulbecco's modified minimum essential medium (DMEM) supplemented with 3 g/l of sodium bicarbonate, 4 mM of L-glutamine, 10% of fetal calf serum, 5% of horse serum and 100 units/ml of penicillin/streptomycin.
The coculturing was carried out with Transwell® tissue culture-treated polycarbonate plates (12 mm in diameter and 12 μm pore size). An initial equilibrating period was observed by adding the media to the central well of the plate, and then to the Transwell® insert, which operation was followed by incubation at 37° C. for 3 h.
The PC12 cells were seeded in 12-well plates coated with collagen for 24 h in order to ensure correct attachment to the culture plates. The MCF-7 or NCBE cells were seeded inside the Transwell® insert, corresponding to the upper compartment, in the complete medium for 24 h. After this time, each cell line was rinsed three times with serum-free medium and was incubated in a withdrawal medium. […] The percentage of cells bearing neurites, defined as cells with one or more neurite extensions twice the length of the cell body, was counted. […]

MCF-7 cells = assay: Growth of MCF-7 cancer cells (cell count with hemocytometer); type: cell-based, human; conditions: serum-free basic medium, 24-72 h, FIG. 4A
Protocol: The effect of the blocking antibody MAB-256 (above) and of the inhibitor K-252a on the growth of MCF-7 cells was studied. To do this, the cells were seeded in a proportion of 2×10^4 cells/ml in 35 mm dishes in complete medium. After having reached 40% confluency, the cells were washed twice and were left without nutrients in a serum-free medium containing fibronectin (2 μg/ml) and transferrin (30 μg/ml) for 3 h. The following hour, the medium was replaced with 2 ml of the same medium containing the inhibitor K-252a or the antibody […] at various concentrations in order to study the effect of the pharmacological inhibitor or of the blocking inhibitor on the base line growth level. After treatment for 24, 36, 48 and 72 h, the number of cells was determined, after trypsinization of the monolayer culture with a solution of 0.25% trypsin/EDTA, using a hemocytometer. An anti-mouse monoclonal antibody ([…], Sigma), i.e. an irrelevant antibody, was also used in order to determine the specificity of the blocking antibody.

| Compound | PC12 cell differentiation (cells bearing neurites) (PC12 cells; coculture of MCF-7 and PC12 cells, 48 h, FIG. 2B) | growth of the MCF-7 cells (number of cells) (MCF-7 cells) | PC12 cell differentiation (neurite development) (PC12 cells; culture of PC12 cells alone as a control, in the presence of NGF, FIG. 2B photograph 3) |
| --- | --- | --- | --- |
| COC(=O)[C@@]1(O)C[C@H]2O[C@]1(C)n1c3ccccc3c3c4c(c5c6ccccc6n2c5c31)C(=O)NC4 [K-252a] | strong inhibition of the PC12 cell differentiation | decreases | – |
| NGF: nerve growth factor added to the medium as positive control for PC12 differentiation | – | – | neurite development due to differentiation is observed |
